In PMC8764033, “Single-molecule analysis of specificity and multivalency in binding of short linear substrate motifs to the APC/C” (Nature Communications, 2022):
Where a SMILES comes first, the peptide text is derived from it.

Legend:
[1] = system: APC/C^Apc10-4A, Cdh1; test: SMOR assay, yeast APC/C^Apc10-4A, Cdh1; assay type: binding, Saccharomyces cerevisiae
Description: (§1) Yeast strains were derivatives of W303 and are listed in Supplementary Table 2. For APC/C purification, we used a strain carrying Cdc16-TAP and lacking Cdh1 (DOM1126); in most experiments, the strain also carried Apc1-GFP (NHY13). Yeast were grown in YPD media to OD600 = 0.8, collected and flash-frozen. Cells were lysed by bead beating in lysis buffer A (50 mM HEPES pH 7.5, 150 mM KCl, 10% glycerol, 0.2% Triton X-100, 63 µM B-glycerophosphate, 48 µM sodium fluoride, 1 µg ml^−1 pepstatin A, 1 µg ml^−1 leupeptin, 1 µg ml^−1 aprotinin, 1 mM PMSF, 1 mM DTT, 0.5 mM EDTA) and APC/C was purified using magnetic IgG beads. The beads were washed using wash buffer A (20 mM HEPES pH 7.5, 150 mM KCl, 10% Glycerol, 0.05% Triton X-100). After incubation with purified Cdh1 or Cdc20, the APC/C was cleaved off the beads with TEV protease in wash buffer A with 0.05% Tween-20 (for single-molecule studies) or 0.05% Triton X-100 (for ensemble assays such as ubiquitylation) and used immediately.
(§2) For all SMOR experiments, 24 × 50 mm high precision glass coverslips (Bioscience Tools) and drilled microscope slides were passivated with a combination of PEG and PEG-biotin (coverslips) or PEG only (slides) following a previously published protocol for SiMPull[31]. Reaction chambers (~20 µl) were created using double-sided tape and epoxy. Protein was immobilized on the surface with 0.2 mg ml^−1 NeutrAvidin in buffer C (20 mM HEPES pH 7.5, 150 mM KCl, 10% glycerol, 0.05% Tween-20, 1 mM DTT). Excess NeutrAvidin was washed away and incubated with either biotin-conjugated mouse monoclonal anti-Strep-Tag II antibody (LSBio, Cat. No. LS-C203632-100) or biotin-conjugated rabbit polyclonal anti-GFP antibody (Rockland, Cat. No. 600-406-215) diluted in buffer C + BSA (0.1 mg ml^−1; Molecular Biology Grade Bovine Serum Albumin). Activator WD40 and activated APC/C (typically 50 µl containing about 65 ng APC/C, of which only a small fraction is immobilized on the glass) were immobilized using anti-Strep-Tag II, while APC/C alone was immobilized with anti-GFP. SMOR results were similar when performed in the buffer (wash buffer B) used in polarization anisotropy.
(§3) To capture dynamic protein–protein interactions, dye-labeled substrate diluted in buffer C + BSA was added to the chamber containing immobilized proteins. Interactions were imaged by TIRF microscopy as described below. For optimal signal-to-noise ratio, peptide concentration was no greater than 1 nM. […]
(§4) Microscopy was performed with a Nikon Eclipse TE2000-E with Perfect Focus with a 100 × 1.49na oil, Apo TIRF DIC N2, 0.13-0.2, WD0.12 objective. Movies were recorded using the Andor iXon DU-897E-CSO. […]

[2] = system: APC/C^Apc10-4A, Cdc20; test: SMOR assay, yeast APC/C^Apc10-4A, Cdc20; assay type: binding, Saccharomyces cerevisiae
Description: as §1, §2, §3, §4

[3] = biological target: T1, hCdc20^WD40 (Homo sapiens, UniProt Q12834); test: Fluorescence anisotropy, 10 nM Cy5-labeled peptide, hCdc20^WD40; assay type: binding
T1 construct: human Cdc20 (aa 162–484; pNH188); made in house; host or cells: Sf9 insect cells (baculovirus)
T1 sequence (Q12834 162-484): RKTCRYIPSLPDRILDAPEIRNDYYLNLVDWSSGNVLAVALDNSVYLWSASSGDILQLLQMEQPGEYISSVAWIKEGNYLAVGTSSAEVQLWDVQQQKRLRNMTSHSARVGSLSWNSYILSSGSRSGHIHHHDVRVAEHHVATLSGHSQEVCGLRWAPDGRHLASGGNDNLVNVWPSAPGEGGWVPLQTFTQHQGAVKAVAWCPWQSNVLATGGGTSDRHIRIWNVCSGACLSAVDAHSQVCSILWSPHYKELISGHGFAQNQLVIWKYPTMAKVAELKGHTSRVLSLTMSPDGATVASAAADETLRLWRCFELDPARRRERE

[4] = Supplementary Table 1, replicate 1
[5] = Supplementary Table 1, replicate 2

Row | Compound | binding (in words) [1] | Dwell Time (in words) [1, 4] | binding (in words) [2] | Dwell Time (in words) [2, 4] | Dwell Time (in words) [1, 5] | Dwell Time (in words) [2, 5] | binding to human Cdc20 (in words) [3]
1 | CC[C@H](C)[C@H](NC(=O)[C@H](CC(=O)O)NC(=O)[C@H](CO)NC(=O)[C@H](C)NC(=O)[C@H](C)NC(=O)[C@H](C)NC(=O)[C@H](C)NC(=O)[C@H](CCCCN)NC(=O)[C@@H]1CCCN1C(=O)[C@H](CCCCN)NC(=O)[C@H](CCC(N)=O)NC(=O)[C@@H](N)CCC(=O)O)C(=O)N[C@H](C(=O)N[C@@H](C)C(=O)N[C@@H](CO)C(=O)N[C@@H](Cc1ccccc1)C(=O)N[C@@H](CC(N)=O)C(=O)N[C@@H](CCCCN)C(=O)N[C@@H](CCSC)C(=O)N[C@@H](CC(N)=O)C(=O)N[C@@H](CCCCN)C(=O)O)[C@@H](C)O [Hsl1 D box mutant] (H-EQKPKAAAASDITASFNKMNK-OH; N-terminus and C-terminus assumed) | No binding | no binding | No binding | no binding | – | – | –
2 | CC[C@H](C)[C@H](NC(=O)[C@H](Cc1ccccc1)NC(=O)[C@H](CO)NC(=O)[C@H](CCCCN)NC(=O)[C@H](CO)NC(=O)[C@H](CCCNC(=N)N)NC(=O)[C@H](CC(N)=O)NC(=O)[C@H](CC(N)=O)NC(=O)[C@H](CC(=O)O)NC(=O)[C@H](CCCCN)NC(=O)[C@H](C)NC(=O)[C@H](C)NC(=O)[C@H](CC(C)C)NC(=O)[C@@H]1CCCN1C(=O)[C@H](CC(C)C)NC(=O)[C@H](CCCNC(=N)N)NC(=O)CNC(=O)[C@H](CCC(N)=O)NC(=O)[C@H](CCC(N)=O)NC(=O)[C@H](CCC(N)=O)NC(=O)[C@H](C)N)C(=O)N[C@@H](CCCCN)C(=O)O [ySecurin D box] (H-AQQQGRLPLAAKDNNRSKSFIK-OH; N-terminus and C-terminus assumed) | – | single frame | – | single frame | single frame | single frame | –
3 | LIYVDKENGEPGTR-K(Cy5) [hSecurin KEN, Cy5-labeled KEN box peptide of human securin/Pttg1] | – | – | – | – | – | – | not Cdc20
4 | LPKATRKALGTVNRATEKSVK-K(Cy5) [AurKB D box, Cy5-labeled D box peptide of Aurora B kinase] | – | – | – | – | – | – | not Cdc20
